Reference: ChEMBL document CHEMBL1129361, “Modulators of leukotriene biosynthesis and receptor activation” (J Med Chem, 1996)
Each block holds one compound with its values, some of them ahead of it.

How the values were obtained:
[1] = phase 1 oral half life at a dose 200 mg.; assay type: ADME, organism-based; conditions: human, in vivo
[2] = (§1) Compound was tested for in vivo inhibition against gp antigen bronchospasm.; assay type: functional; conditions: Cavia porcellus, Bronchiole
Mus musculus [3] = experiment: Compound was tested for in vivo inhibition against mouse AA ear edema.; assay type: functional
Homo sapiens [4] = species: Homo sapiens; experiment: Compound was tested for in vitro inhibition against human PMNL.; assay type: functional
Cavia porcellus [5] = experiment: Compound was tested for in vivo inhibition against gp AA bronchospasm.; assay type: functional; conditions: Bronchiole
Rattus norvegicus [6] = experiment: Compound was tested for in vivo inhibition against rat peritoneal anaphylaxis.; assay type: functional
Homo sapiens [7] = species: Homo sapiens; experiment: Compound was tested for in vitro inhibition against human whole blood.; assay type: functional
RBL-1 [8] = experiment: Compound was tested for in vitro inhibition against broken RBL-1.; assay type: functional; conditions: Rattus norvegicus
Cavia porcellus [9] = experiment: Compound was tested in vivo inhibitory activity against LTB4 induced bronchoconstriction (intravenous); assay type: functional
Cavia porcellus [10] = experiment: Compound was tested in vivo inhibitory activity against LTB4 induced bronchoconstriction (orally); assay type: functional; conditions: po
Cavia porcellus [11] = experiment: as §1; assay type: functional; conditions: Bronchiole
[12] = phase 1 oral half life at a dose 200 mg. (200 mg provided >95% inhibition of ex vivo stimulated LTB4 in blood up to 18 hour post dose); assay type: organism-based; conditions: human
[13] = target: T1, Cysteinyl leukotriene receptor (Homo sapiens, UniProt Q9Y271+Q9NS75); experiment: Binding affinity against Cysteinyl leukotriene D4 receptor; assay type: protein assay
T1 sequence (Q9Y271 whole entry): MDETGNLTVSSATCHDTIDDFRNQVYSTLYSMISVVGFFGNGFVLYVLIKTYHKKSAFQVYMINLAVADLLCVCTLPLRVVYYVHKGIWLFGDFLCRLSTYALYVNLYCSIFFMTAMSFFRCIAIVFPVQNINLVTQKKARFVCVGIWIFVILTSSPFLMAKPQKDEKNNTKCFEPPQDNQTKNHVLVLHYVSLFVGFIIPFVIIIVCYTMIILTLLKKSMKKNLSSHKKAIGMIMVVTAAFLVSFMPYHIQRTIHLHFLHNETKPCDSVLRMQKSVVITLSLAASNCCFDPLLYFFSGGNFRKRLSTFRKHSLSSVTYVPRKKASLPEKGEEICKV
T1 sequence (Q9NS75 whole entry): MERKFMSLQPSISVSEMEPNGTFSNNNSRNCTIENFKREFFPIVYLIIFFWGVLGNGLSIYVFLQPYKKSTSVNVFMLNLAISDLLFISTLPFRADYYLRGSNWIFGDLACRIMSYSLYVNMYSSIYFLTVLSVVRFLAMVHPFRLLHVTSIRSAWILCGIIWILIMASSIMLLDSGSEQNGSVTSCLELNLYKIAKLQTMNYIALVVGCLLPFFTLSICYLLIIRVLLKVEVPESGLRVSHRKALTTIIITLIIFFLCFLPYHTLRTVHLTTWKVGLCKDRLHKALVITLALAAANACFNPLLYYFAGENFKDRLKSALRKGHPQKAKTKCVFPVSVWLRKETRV

Homo sapiens [14] = experiment: Compound was tested for fold shift in LTD4 dose response curve following 1 g oral dose; assay type: functional
Cavia porcellus [15] = experiment: Compound was tested in vivo inhibitory activity against LTB4 induced bronchoconstriction in guinea pig(po); assay type: functional
Cavia porcellus [16] = experiment: Compound was tested in vivo inhibitory activity against LTB4 induced bronchoconstriction in guinea pig (intravenous).; assay type: functional
Cavia porcellus [17] = species: Cavia porcellus; experiment: Compound was tested for LTD4 induced guinea pig trachea contraction; assay type: functional; conditions: read-out: pA2 (converted)
Cavia porcellus [18] = species: Cavia porcellus; experiment: Compound was evaluated for LTD4 induced against guinea pig trachea contraction; assay type: functional
Homo sapiens [19] = experiment: LTD4 induced broncho constriction (shift in dose response curve 2 hr following 800 mg oral dose); assay type: functional
Mus musculus [20] = experiment: Compound was tested in vivo inhibitory activity against PMA induced ear edema.; assay type: functional
Homo sapiens [21] = species: Homo sapiens; experiment: Compound was tested in vitro for inhibitory activity in LTB4 induced neutrophil degranulation; assay type: functional
Cavia porcellus [22] = experiment: Compound was tested in vivo for LTB4 induced neutrophil chemotaxis in guinea pig(orally) at duration 5.5 h; assay type: functional; conditions: po
Homo sapiens [23] = experiment: Fold shift in LTD4 dose response curve following 250 mg oral dose.; assay type: functional
[24] = target: T2, Cysteinyl leukotriene receptor 1 (Homo sapiens, UniProt Q9Y271); experiment: Compound was tested for inhibitory activity against LTD4 (leukotriene).; assay type: functional
T2 sequence (Q9Y271 whole entry): T1 sequence (Q9Y271 whole entry)

Rattus norvegicus [25] = experiment: Compound was tested for in vivo inhibition against rat zymosan induced exudate.; assay type: functional
Rattus norvegicus [26] = species: Rattus norvegicus; experiment: Compound was tested for in vitro inhibition against Rat PMNL; assay type: functional
[27] = phase 1 oral half life at a dose 50 mg - 750 mg.; assay type: ADME, organism-based; conditions: human, in vivo
Cavia porcellus [28] = species: Cavia porcellus; experiment: Compound was evaluated for LTD4 induced guinea pig trachea contraction; conditions: read-out: pA2 (converted)
Homo sapiens [29] = experiment: Compound was evaluated for LTD4 induced bronchoconstriction (shift in dose response curve 2 hr after 40 mg oral administration); assay type: functional
Homo sapiens [30] = experiment: Compound was evaluated for LTD4 induced bronchoconstriction (shift in dose response curve 2 hr after 40 mg oral administration) shift persisted for 24 hrs; assay type: functional
Rattus norvegicus [31] = experiment: Compound was tested for in vivo inhibition against rat zymosan-inflamed air pouch; assay type: functional
Mus musculus [32] = experiment: Compound was tested for in vivo inhibition against mouse AA ear edema; assay type: functional
Cavia porcellus [33] = experiment: Compound was tested for in vivo inhibition against gp antigen bronchospasm; assay type: functional; conditions: Bronchiole
Mus musculus [34] = species: Mus musculus; experiment: Compound was tested for in vitro inhibition against murine macrophage; assay type: functional
Homo sapiens [35] = species: Homo sapiens; experiment: Compound was tested for in vitro inhibition against human whole blood; assay type: functional
[36] = Phase 1 oral half life was determined; assay type: ADME, organism-based; conditions: human, in vivo
Cavia porcellus [37] = experiment: Compound was tested for in vivo inhibition on gp AA bronchospasm.; assay type: functional; conditions: Bronchiole
Rattus norvegicus [38] = experiment: Compound was tested for in vivo inhibition on rat peritoneal anaphylaxis.; assay type: functional
RBL-1 [39] = experiment: Compound was tested for in vitro inhibition on broken RBL-1.; assay type: functional; conditions: Rattus norvegicus
Homo sapiens [40] = species: Homo sapiens; experiment: Compound was tested for in vitro inhibition on human whole blood.; assay type: functional
Homo sapiens [41] = species: Homo sapiens; experiment: Compound was tested for in vitro inhibition on human PMNL.; assay type: functional
Mus musculus [42] = experiment: Compound was tested for in vivo inhibition on mouse AA ear edema.; assay type: functional
Cavia porcellus [43] = experiment: Compound was tested for in vivo inhibition on gp antigen bronchospasm.; assay type: functional; conditions: Bronchiole

half-life [1]: 7 h | IC50 (Homo sapiens [4]): 25 nM | IC50 (Homo sapiens [7]): 80 nM | IC50 (RBL-1 [8]): 54 nM
Structure (SMILES): C[C@H](C#Cc1ccc(Oc2ccc(F)cc2)o1)N(O)C(N)=O
ED50 [2]: 2.5 mg/kg | ED50 (Mus musculus [3]): 3 mg/kg | ED50 (Cavia porcellus [5]): 2 mg/kg | ED50 (Rattus norvegicus [6]): 1.5 mg/kg

IC50 (Homo sapiens [4]): 23 nM | half-life [12]: 15 h | IC50 (Homo sapiens [7]): 150 nM | IC50 (RBL-1 [8]): 23 nM
Structure (SMILES): C[C@H](C#Cc1ccc(Cc2ccc(F)cc2)s1)N(O)C(N)=O [ATRELEUTON]
ED50 (Cavia porcellus [11]): 4 mg/kg | ED50 (Rattus norvegicus [6]): 0.6 mg/kg

Ki [13]: 400 nM
Structure (SMILES): CCCc1c(OCCCSc2ccc([C@@H](O)[C@H](C)CC(=O)O)cc2)ccc(C(C)=O)c1O [L-649923]
Activity (Homo sapiens [14]): 3.8

IC50 [24]: 23 nM
Structure (SMILES): O=C(O)c1ccccc1Nc1cccc(OCc2ccc3ccccc3n2)c1 [SR-2640]
Activity (Homo sapiens [23]): <2

IC50 (Rattus norvegicus [26]): 26 nM | half-life [27]: 4 h | IC50 (Homo sapiens [4]): 220 nM | IC50 (Homo sapiens [7]): 11600 nM
Structure (SMILES): O=C(O)[C@@H](c1ccc(OCc2ccc3ccccc3n2)cc1)C1CCCC1 [VELIFLAPON]
ED50 (Rattus norvegicus [25]): 8 mg/kg | ED50 (Cavia porcellus [11]): 6.3 mg/kg | ED50 (Mus musculus [3]): 49 mg/kg

IC50 (Mus musculus [34]): 3 nM | IC50 (Homo sapiens [35]): 20 nM
Structure (SMILES): COC1(c2cc(F)cc(OCc3ccc4c(ccc(=O)n4C)c3)c2)CCOCC1 [ZD-2138]
ED50 (Rattus norvegicus [31]): 0.3 mg/kg | ED50 (Mus musculus [32]): 1.8 mg/kg | ED50 (Cavia porcellus [33]): 0.1 mg/kg

half-life [36]: 3 h | IC50 (RBL-1 [39]): 100 nM | IC50 (Homo sapiens [40]): 700 nM | IC50 (Homo sapiens [41]): 600 nM
Structure (SMILES): CC(c1cc2ccccc2s1)N(O)C(N)=O (centres undefined) [ZILEUTON]
ED50 (Cavia porcellus [37]): 18 mg/kg | ED50 (Rattus norvegicus [38]): 3 mg/kg | ED50 (Mus musculus [42]): 31 mg/kg | ED50 (Cavia porcellus [43]): 12 mg/kg

The next lines start with the compound.

Structure (SMILES): CCCc1c(OCCCOc2cc(O)c(C(C)=O)cc2CC)ccc2c1OC(C(=O)O)CC2 (centres undefined)
ED50 (Cavia porcellus [9]): 0.23 mg/kg | ED50 (Cavia porcellus [10]): 0.5 mg/kg

Structure (SMILES): CCCc1c(OCCCS(=O)(=O)c2ccc(C(=O)CCC(=O)O)cc2)ccc(C(C)=O)c1O [L-648051]
Ki [13]: 6200 nM

Structure (SMILES): CCc1cc(C(C)=O)c(O)cc1OCCCCCC(C)(C)c1nn[nH]n1 [LY-255283]
ED50 (Cavia porcellus [15]): 11 mg/kg | ED50 (Cavia porcellus [16]): 2.8 mg/kg

Structure (SMILES): CC(C)(O)c1ccccc1CC[C@@H](SCC1(CC(=O)O)CC1)c1cccc(/C=C/c2ccc3ccc(Cl)cc3n2)c1 [MONTELUKAST]
Kb (Cavia porcellus [17]): 0.501 nM

Structure (SMILES): CCCCCC(O)c1cccc(OCc2ccc3ccccc3n2)c1 (centres undefined) [REV-5901]
Ki [13]: 700 nM | pKB (Cavia porcellus [18]): 5.5

Structure (SMILES): c1ccc(Cc2nn[nH]n2)c(COc2ccc(OCc3ccc4ccccc4n3)cc2)c1 [RG-12525]
Activity (Homo sapiens [19]): 7.5 | Ki [13]: 3 nM

Structure (SMILES): CCCc1c(OCCCOc2ccc(C(C)=O)c(OC)c2CCC)ccc2c1OC(C(=O)O)CC2 (centres undefined) [SC-41390]
ED50 (Mus musculus [20]): 4200 nM | IC50 (Homo sapiens [21]): 1080 nM | ED50 (Cavia porcellus [22]): 1.7 mg/kg

Structure (SMILES): COc1cc(C(=O)NS(=O)(=O)c2ccccc2C)ccc1Cc1cn(C)c2ccc(NC(=O)OC3CCCC3)cc12 [ZAFIRLUKAST]
Kb (Cavia porcellus [28]): 0.316 nM | Activity (Homo sapiens [29]): 117 | Activity (Homo sapiens [30]): 5
